Here are results for ten compounds from US9241928B2, “Antimicrobial compounds” (The General Hospital Corporation, priority 2009, dated 2016).

The structures appear in SMILES notation. In brackets after ≈: the same amount, converted by molar mass. Bounds are passed on as bounds.

One assay has as its system E. faecalis MMH594. Put plainly: MIC assay, E. faecalis in vitro. The settings on record: Enterococcus faecalis; E. faecalis MMH594 in 20% BHI, 80% M9, 37° C., 15 hours, scored by eye. In kind it is cell-based. The procedure: A culture of E. faecalis MMH594 was grown overnight in BHI broth to stationary phase at 37° C. with aeration. The culture was diluted to an approximate density of […] in worm infection media (20% BHI, 80% M9 buffer). 12.5 μl of the bacterial culture dilution was inoculated into 384-well plates containing 12.5 μl of 2-fold serial dilutions of a test compound. […] Plates were incubated at 37° C. for 15 hours and scored by eye for bacterial growth.

For assay [1], the system named is C. elegans infected with E. faecalis. Put plainly: Dose response time courses in the C. elegans-E. faecalis infection assay. In kind it is in vivo, Caenorhabditis elegans. The note with it: Effective Concentration: survival significantly different from mock-treated, p-value <0.05, logrank; read-out: EC. The procedure: (§1) glp-4(bn2); sek-1 (km4) mutant worms were grown to gravid adult stage. 1,000 worms at the L1 stage were grown for 5.2 days at 15° C. on 9-cm plates of SK agar media spread with a lawn of E. coli strain HB101. Embryos from the gravid adults were isolated by a previously described hypochlorite method (see Tan et al., (1999) Proc. Natl. Acad. Sci. USA 96, 715-720) and hatched at 15° C. for 2 days. Approximately 4,500 of the Ll hatchlings were grown on each 9-cm plate of SK-NS agar (SK media with 62.5 U/ml nystatin and 100 μg/ml streptomycin) and with lawns of E. coli HB101. These worms were grown at 25° C. for 52 hours to generate sterile, young adults.
(§2) A culture of E. faecalis MMH594 was grown in BHI broth (BD Difco) with 80 μg/ml kanamycin at 37° C. for 6 hours and 100 μl of the culture were spread onto each 9-cm plate of BHI agar containing 80 μg/mlkanamycin. Lawns of E. faecalis were grown at 25° C. for 16 hours and transferred to 15° C. for 8 hours.
(§3) Sterile adult worms were resuspended in M9 buffer and washed twice with M9 in a 1:10 ratio to remove E. coli. 8,000 worms were pipetted onto each lawn of E. faecalis and incubated 15 hours at 15° C. After infection, the worms were resuspended in M9 and used as described below. 384-well plates (Corning #3712) were filled with 55 μl media (see below) using a Thermo Scientific MULTIDROP Combi reagent dispenser. 0.3 μl of a candidate compound in DSMO were pin transferred into each well using a CyBio CYBI-Well vario transfer system. The plates were agitated using an Eppendorf MIXMATE at 1,800 rpm for 15 seconds. Using the Union Biometrica Complex Object Parametric Analyzer and Sorter (COPAS) BIOSORT worm sorter according to manufacturer's protocols, 15 of the infected worms were transferred to each well in a total volume of approximately 15 μl. Total volume per well is 70 μl/well with a final composition of the media being 20% BHI, […], 80 μg/ml kanamycin, 62.5 U/ml nystatin, 1% DMSO, and 19% sheath solution (Union Biometrica Part #300-5101-000). Plates were vortexed for 5 seconds, centrifuged at 1000×g for 10 seconds, and sealed with gas permeable membranes (BREATHEASY Diversified). Plates were placed in a single layer on the top shelves in a 26.3° C. incubator at 85% relative humidity (RH) and incubated without agitation for 5 days.
The dose dependence of certain antimicrobial compounds identified by the assay above were studied. These compounds were purchased in a larger amount from commercial sources. For each of these compounds, an infection assay was performed essentially as described above at different concentrations except that SYTOX staining was not used. Instead, bright-field images of the wells were acquired at daily time points and scored manually for worm survival by analyzing worm body positioning. […] All compounds used in this assays were confirmed for their identity and purity by liquid chromatography/mass spectrometry.

In assay [2] the test system is MRSA infection in Caenorhabditis elegans. Put plainly: MRSA infection assay in C. elegans (liquid). Type of assay: in vivo. The note with it: 5 days. An excerpt:
To screen/test candidate compounds for their efficacy against Methicillin-resistant Staphylococcus aureus (MRSA) using Caenorhabditis elegans (C. elegans), a liquid high throughput screening assay was developed. In contrast to the Enterococcus faecalis infection assay, where worms are pre-infected with E. faecalis on agar prior to the start of the screening assay and then infected worms are transferred to microtiter plates using the COPAS BioSort robot, the infection of worms with MRSA occurred directly in the liquid medium. This liquid infection protocol with MRSA was developed because the COPAS BioSort, the large particle sorter used to dispense worms into multiwell plates, is a pressurized system that can generate aerosols. Because MRSA is a potentially dangerous pathogen for immune competent individuals, sorting MRSA-infected worms in the COPAS BioSort was deemed to be potentially hazardous.
The MRSA infection assay was carried out by incubating C. elegans with three MRSA strains (i.e., USA100, USA400 and MW2) in 96 or 384-well microtiter plates and assessing whether worms were live or dead after a 5 day incubation.
The MRSA infection assay was performed as follows: Worms were grown on agar using non-pathogenic E. coli as a food source until they reached the L4/young adult stage. A small volume of M9 buffer was added to the agar plates to float worms gently off the food source. The worms were then transferred into a large conical tube and washed 2 times by allowing worms to settle, aspirating the supernatant and adding fresh M9 buffer. 15 worms were then transferred using a COPAS BioSort large particle sorter into a 96-well plate containing […] of M9. […] After the worms were stained for 18 hours, images of the plates were acquired in bright field and red fluorescence channels using a Molecular Devices Discovery-1 or ImageXpress automated microscopy system. The total number of worms was counted in the bright field image and the number of dead animals are determined by positive SYTOX staining. […]

For assay [3], the system named is E. faecalis strain MMH594. Put plainly: Antimicrobial (bacterial killing) assay. Type of assay: cell-based, Enterococcus faecalis. The settings on record: mM concentrations, 1 to 30 minutes, room temperature. The procedure: Compounds 6, 7, 15 were purchased from TimTec and ChemDiv, dissolved in DMSO at a concentration of 5 or 10 mg/ml, and further diluted in DMSO as indicated. E. faecalis strain MMH594 was grown overnight with aeration at 37° C. in Bacto brain heart infusion (BHI) broth (Becton Dickinson), transferred to ice, and washed in phosphate-buffered saline (PBS; pH 7.2). Equal volumes of a dissolved compound and bacteria were mixed, incubated at room temperature for 1 to 30 minutes, ten-fold serially diluted in PBS, and plated in […] droplets on BHI agar plates. Plates were incubated at room temperature until colonies were visible.

Assay [4] concerns C. elegans infected with E. faecalis. Put plainly: Automated infection assay for primary compound screening (SYTOX staining, CELLPROFILER). In kind it is in vivo, Caenorhabditis elegans. The protocol: In general, the area of each well that is SYTOX-positive in the fluorescence image is measured and normalized by the total area occupied by all worms, which is quantified in the bright field image. This typically requires illumination correction to flatten lighting abnormalities, adaptive thresholding, and size- and contrast-based filters and masks to exclude debris and other artifacts. By calculating the ratio of the fluorescent area (which corresponds to the area occupied by dead worms) to the total area occupied by all worms, one can accurately determine the number of dead worms in each well. […] In a well where the worms are rescued by ampicillin treatment, 3 of the 14 worms were dead based on manual scoring. The ratio of the fluorescent area to the area occupied by all worms obtained by the CELLPROFILER analysis is correspondingly low at 0.12.
as §1, §2, §3
After 5 days, the bacteria and liquid media in the assay plates were removed as described below. First, the bacteria were re-suspended by shaking on the MIXMATE for 15 seconds at 1,800 rpm, the sealing membrane was removed, and the worms were allowed to settle to the bottom of the wells for 3 minutes. […]

By MIC is commonly meant the lowest concentration found to suppress growth. A high value points to a need for much substance. For the compound `Oc1c(C(Nc2ccccn2)c2ccccn2)cc(Cl)c2cccnc12` (stereo not shown) [Compound 3], in the assay with E. faecalis MMH594, the MIC is 12.5 µg/mL (≈ 34.5 µM). The minimal effective concentration in assay [1] was determined as 3.13 µg/mL. The “survival of MRSA-infected worms (FIG. 4)” value in assay [2] (6.25 and 12.5 μg/ml) is listed as “resulted in survival of MRSA-infected worms”.

Turning to `CC(C)(C)C1=NN(c2nc3ccc(Cl)cc3s2)C(=O)C1` [Compound 4], the MIC in the assay with E. faecalis MMH594 amounted to 1.56 µg/mL (≈ 5.07 µM). Further, the minimal effective concentration in assay [1] came out at 0.39 µg/mL.

Turning to `CC(=O)O` [acetic acid, reference compound], the “bactericidal activity (FIGS. 7A and 7B)” value in assay [3] was “did not show any bactericidal activity”.

The compound `Cc1c(O)ccc(/C=N/Nc2nc(-c3ccc(Br)cc3)nc3ccccc23)c1O` [Compound 9] showed an MIC against E. faecalis MMH594 of more than 100 µg/mL. The minimal effective concentration in assay [1] turned out to be 3.13 µg/mL. For the same compound, the “survival of MRSA-infected worms (FIG. 4)” value in assay [2] (25 and 50 μg/ml) is reported as “resulted in survival of MRSA-infected worms”.

Compound `Oc1c(C(Nc2ccccn2)c2cccc(F)c2)cc(Cl)c2cccnc12` (stereo not shown) [Compound 2] returned an MIC against E. faecalis MMH594 of 25 µg/mL (≈ 65.8 µM). The minimal effective concentration in assay [1] was 1.56 µg/mL.

In turn, `O=C(CCSCc1ccc(Cl)cc1)N1CCN(c2ccccc2)CC1` [Compound 7] returned an MIC against E. faecalis MMH594 of more than 100 µg/mL. The minimal effective concentration in assay [1] came out at 25 µg/mL. Further, the “bactericidal activity (FIGS. 7A and 7B)” value in assay [3] is “did not show any bactericidal activity”.

As for `CCC(=O)O` [propionic acid, reference compound], in assay [3], the “bactericidal activity (FIGS. 7A and 7B)” value is “did not show any bactericidal activity”.

Consider `Oc1c(C(Nc2ccccn2)c2ccccc2F)cc(Cl)c2cccnc12` (stereo not shown) [Compound 1], for which, in the assay on E. faecalis MMH594, the lowest concentration to inhibit growth (MIC) was 12.5 µg/mL (≈ 32.9 µM). In assay [1], the minimal effective concentration was found to be 0.78 µg/mL.

In the assay with E. faecalis MMH594, `CSc1ccc(-c2cccs2)nn1` [Compound 8] came in with an MIC of more than 100 µg/mL. Moreover, in assay [1], the minimal effective concentration was 3.13 µg/mL.

Take `CC1(C)S[C@@H]2[C@H](NC(=O)[C@H](N)c3ccccc3)C(=O)N2[C@H]1C(=O)O` [ampicillin]: the “z-score, screen average” value in assay [4] (ampicillin-treated wells, 21 μg/ml) is given as −8.70. In assay [4] (of 14 worms in the well, ampicillin treatment), the “dead worms based on manual scoring” value is reported as 3. In addition, the “ratio of the fluorescent area to the area occupied by all worms (CELLPROFILER)” value in assay [4] (well where worms are rescued by ampicillin treatment) is listed as 0.12.
